Experiments:
circulating cholesterol [1] = assay: 28-day multiple-dose study in healthy volunteers: circulating cholesterol and serum sterols; format: in vivo, human
Protocol: (§1) Forty-two healthy volunteers received Compound 1 QD for 28 days (or before early withdrawal), with 6 individual participants per cohort receiving 1 mg (Cohort 1), 3 mg (Cohort 2), 10 mg (Cohort 3), 30 mg (Cohort 4), 60 mg loading dose with 10 mg maintenance dosing (Cohort 5) Compound 1, 60 mg (Cohort 6), or 90 mg loading dose on Day 1 and Day 2 with 30 mg maintenance dosing (Cohort 7). There were also 14 participants who received placebo in the study; 1 participant in Cohort 4 was misdosed on Day 19 and appeared to have received at least one 30 mg dose of Compound 1. The following protocol deviations were reported for participants in Cohorts 1 through 5: they received predose water ad lib (not restricted for 1 hour before and 1 hour after dose) and a meal administered 30 minutes postdose (not 4 hours postdose). A total of 49 participants completed treatment, including 37 participants who received active treatment.
(§2) Participants received the first dose of study treatment (Compound 1 or placebo) on Day 1 and continued to receive once-daily study treatment through Day 28. Participants remained in the clinic throughout the dosing period. Participants were discharged on Day 29 after completing all assessments.
Blood was periodically withdrawn from each volunteer and immediately stored at −80° C. For measuring metabolite concentrations in human serum, the samples were centrifuged and the resulting supernatant was used for further analysis.
Free oxysterols were extracted from the samples with methanol using the Biocrates Kit filter plate. The plate was loaded with an internal standard mixture beforehand. The metabolite concentrations were determined by UHPLC-MS/MS with multiple reaction monitoring (MRM) in a positive mode using a SCIEX API 5500 QTRAP® (AB SCIEX, Darmstadt, German) instrument with electrospray ionization (ESI). Data were quantitated using appropriate mass spectrometry software and imported in Biocrates Met/DQ™ software for further analysis.

circulating cholesterol [2] = assay: Population PK/PD model (Monolix) of circulating cholesterol vs Compound 1 plasma concentration; parameters: species or system human
Description: Based on these observations, a population PK/PD model was developed using Monolix to describe circulating cholesterol concentration as a function of plasma concentration of Compound 1 and exposure. The model was developed from cholesterol data from the study described above (Study 1) as well as two additional clinical studies (Study 2 and Study 3) in healthy volunteers. In Study 2, thirty healthy volunteers received a single oral dose of Compound 1 with 6 individual participants per cohort receiving 3 mg (Cohort 1), 10 mg (Cohort 2), 30 mg (Cohort 3), 60 mg (Cohort 4), 100 mg (Cohort 5). There were also 9 participants who received placebo in the study. In Study 3, 8 healthy adult volunteers received a single dose of 30 mg of Compound 1.

[3] = Plasma concentration of Compound 1 in healthy volunteers; format: in vivo, human
Protocol: as §1
Based on these observations, a population PK/PD model was developed using Monolix to describe circulating cholesterol concentration as a function of plasma concentration of Compound 1 and exposure. The model was developed from cholesterol data from the study described above (Study 1) as well as two additional clinical studies (Study 2 and Study 3) in healthy volunteers. […]

rat OPCs = assay: Sterol metabolite levels in rat OPC cultures (Metabolon HD4); format: cell-based; conditions: rat OPC culture
Protocol: Enriched populations of oligodendrocytes from female Sprague Dawley postnatal day 2 (P2) rats were grown in culture. Briefly, the forebrain was dissected and placed in Hank's buffered salt solution (HBSS) (Life technologies). The tissue was cut into 1 mm fragments and incubated at 37° C. for 15 min in 0.01% trypsin and 10 μg/ml DNase. Dissociated cells were plated on poly-D-lysine (PDL)-coated T75 tissue culture flasks and grown at 37° C. for 10 days in Dulbecco's Modified Eagle Medium (DMEM) with 20% fetal calf serum (Life technologies). Oligodendrocyte precursors (A2B5+) were collected by shaking the flask overnight at 200 rpm at 37° C., resulting in a 95% pure population. Cultures were maintained in a defined growth medium (high glucose DMEM, 0.1% BSA, 50 ug/ml Apo-transferrin, 5 ug/ml insulin, 30 nM sodium selenite, 10 nM biotin and hydrocortisone) with 10 ng/ml fibroblast growth factor/platelet-derived growth factor (FGF/PDGF) (Peprotech) for 2-3 days. For assessing the ability of Compound 1 to promote the differentiation of rat A2B5+ progenitor cells into mature myelin basic protein positive (MBP+) myelinating oligodendrocytes, A2B5+ cells were plated into 10-cm PDL coated culture plates in FGF/PDGF free growth medium supplemented with 10 ng/ml CNTF and 15 nM T3 and were immediately treated for with Compound 1. The cell pellets were collected at 24 hours and 72 hours in culture and stored at −80° C. The cell pellets were subsequently shipped to Metabolon (Morrisville, NC, USA) and maintained at −80° C. during shipping and storage until processed. The cell pellet samples were extracted with methanol under vigorous shaking for 2 min (Glen Mills GenoGrinder 2000) to precipitate protein and dissociate small molecules bound to protein or trapped in the precipitated protein matrix, followed by centrifugation to recover chemically diverse metabolites. The resulting extract were next aliquot and analyzed on Metabolon's HD4 platform. Several types of quality control samples, including recovery standards added prior to extraction, technical replicates from a pool combined from each experimental sample, process and solvent blanks, and spiked a cocktail of QC standards, were applied during sample preparation and analysis for quality assessment and filtering failed samples.

[4] = system: LPC induced spinal cord demyelination; assay: LPC induced spinal cord demyelination model; format: in vivo, rat; conditions: oral, daily from Day 3, sacrifice Day 9
[5] = system: LPC induced corpus callosum demyelination; assay: LPC induced corpus callosum demyelination model; format: in vivo; conditions: rat LPC corpus callosum model
[6] = system: cuprizone demyelination in the corpus callosum; assay: Cuprizone/rapamycin demyelination model; format: in vivo, mouse; conditions: oral gavage daily in the last 2 weeks of cuprizone/rapamycin treatment
Protocol: Nine week-old C57/BL6 mice were fed with chow pellets containing 0.3% cuprizone (Harlan) and injected with rapamycin intraperitoneally for 6 weeks (10 mg/kg, 5 days/week). Animals were treated with Compound 1 by oral gavage daily in the last 2 weeks of cuprizone/rapamycin treatment. Animals were sacrificed at the end of the last treatment and brains were dissected to determine the effect of Compound 1 on remyelination in the corpus callosum (white matter) and cerebral cortex regions. Coronal slices (septostriatal section, 1 mm thickness) through the corpus callosum were cut, then cut on the midsagittal plane and embedded in epon, oriented to visualize the entire cross-section of the midsagittal corpus callosum. Myelinated axons in the corpus callosum lesions were quantified by toluidine blue staining. ** p<0.01, *** p<0.001. […] Error bars denote the standard error of the mean. N=39 for the study.

[7] = system: rat A2B5+ oligodendrocytes / DRG neuron co-culture; assay: OPC/DRG co-culture myelination assay (MBP Western blot); format: cell-based; conditions: 13 days co-culture
Protocol: Embryonic dorsal root ganglia (DRG) dissected from embryonic day 14 (E14) to day 17 (E17) Sprague Dawley rats, were plated on poly-L-lysine (100 μg/ml)-coated cover slips for 2 weeks and grown in Neurobasal medium supplemented with B27 (Life technologies). To remove proliferating glial cells, cultures were pulsed twice with fluorodeoxyuridine (20 μM) from days 2-6 and from days 8-10. Then rat A2B5+ oligodendrocytes were added to DRG neuron drop cultures in the presence or absence of compounds at 37° C. with 5% CO2 for 13 days. The culture media (Neurobasal medium supplemented with B27 and 100 ng/ml nerve growth factor (NGF)) with fresh compounds were changed twice per week. Myelination is determined by Western blotting to quantify MBP level.

human iPSC-derived OPCs = assay: Human iPSC-derived OPC differentiation (MBP+ cells); format: cell-based; conditions: 0.02 and 0.2 μM, 40 days
Protocol: Human induced pluripotent stem cell (iPSC) derived OPCs were maintained in proliferation media, composed of advanced DMEM-F12 supplemented with N2, B27, Glutamax, […] heparin (Sigma), 1 μM purmorphamine (Merck), 20 ng/ml FGF/PDGFa (Peprotech), 10 ng/ml IGF (Peprotech), and 60 ng/ml T3 (Sigma). To allow OPC differentiation, purmorphamine and FGF/PDGF were removed from the culture media. Compound 1 (0.02 and 0.2 μM) was incubated with human iPSC-derived OPCs in the differentiation media for 40 days.

[8] = system: human OPC-rat DRG co-culture; assay: Human OPC-rat DRG co-culture myelination (MBP ICC); format: cell-based; conditions: 0.02, 0.2, or 2 μM vs DMSO control
Protocol: Embryonic dorsal root ganglia (DRG), dissected from embryonic day 14 (E14) to day 17 (E17) Sprague Dawley rats, were plated on poly-L-lysine (100 μg/ml)-coated cover slips for 2 weeks and grown in Neurobasal medium supplemented with B27 (Life Technologies). To remove proliferating glial cells, cultures were pulsed twice with fluorodeoxyuridine (20 μM) from days 2-6 and from days 8 to 10. Then human OPCs, prepared as described above, were added to DRG neuron drop cultures. The culture media for rat OPC-DRG co-culture is Neurobasal medium supplemented with B27 and 100 ng/ml NGF with fresh compounds changed twice per week. The culture media for human OPC-rat DRG co-culture is the proliferation media for human OPCs without purmorphamine and FGF/PDGF. Compound 1 (0.02, 0.2, or 2 μM) or DMSO control treatment started 1 day after OPCs were added to DRG culture. To visualize myelination, cultures were fixed by 4% paraformaldehyde (PFA) and labeled with anti-myelin basic protein (MBP) antibodies to identify changes in myelination by ICC.

neutrophils = assay: Neutrophil and monocyte counts in the healthy volunteer study; format: in vivo, human
Protocol: as §1, §2

[9] = target: T1, sphingosine-1-phosphate receptor 4 (S1P4) (Homo sapiens, UniProt O95977); conditions: cited from earlier work
T1 sequence (O95977 1-384): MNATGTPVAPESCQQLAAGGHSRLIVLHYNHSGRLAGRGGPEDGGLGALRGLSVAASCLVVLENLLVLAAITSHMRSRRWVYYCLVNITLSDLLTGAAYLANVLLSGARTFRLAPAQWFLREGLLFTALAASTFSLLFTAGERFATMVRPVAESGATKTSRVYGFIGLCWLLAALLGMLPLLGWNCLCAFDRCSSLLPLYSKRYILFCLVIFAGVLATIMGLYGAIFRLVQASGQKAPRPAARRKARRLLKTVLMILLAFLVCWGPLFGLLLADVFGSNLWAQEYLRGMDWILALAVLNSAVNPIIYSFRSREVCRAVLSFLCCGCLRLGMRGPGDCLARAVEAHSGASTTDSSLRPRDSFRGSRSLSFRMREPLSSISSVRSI

SMILES: CC[C@H]1CC[C@@H](Oc2ccc3cc(CN4CCC(C(=O)O)CC4)ccc3c2)CC1 [Compound 1, 1-((6-(((1s,4s)-4-ethylcyclohexyl)oxy)naphthalen-2-yl)methyl)piperidine-4-carboxylic acid]
- 7-dehydrocholesterol (7-DHC) level (circulating cholesterol [1]; healthy human volunteers): causes accumulation of 7-dehydrocholesterol
- average decrease in total cholesterol (circulating cholesterol [1]; healthy volunteers, 60 mg dose, Study 1): approximately 20%
- total circulating cholesterol (circulating cholesterol [1]; healthy volunteers, QD over 28 days, FIG. 1 (10, 30, 60 mg per day vs placebo)): gradual, time- and dose-dependent reduction
- concentration of circulating cholesterol in the model (circulating cholesterol [2]; by daily dose): reduced at all daily doses higher than 10 mg
- predicted decrease in circulating cholesterol (circulating cholesterol [2]; model prediction, 60 mg QD): approximately 35%
- EC50 for reduction in circulating cholesterol concentration (circulating cholesterol [2]; population PK/PD model, plasma concentration of Compound 1): about 3 μg/mL
- steady-state concentration of Compound 1 ([3]; daily dose of 60 mg): about 3 μg/mL
- time of increase to steady-state concentrations of Compound 1 in plasma ([3]; daily dosing): approximately 15 days
- 7-DHC vs vehicle control (rat OPCs; 24 hours): 8.3 folds
- cholesterol vs vehicle control (rat OPCs; 24 hours): 0.64 folds
- desmosterol vs vehicle control (rat OPCs; 24 hours): 0.44 folds
- 7-DHC vs vehicle control (rat OPCs; 72 hours): 12.86 folds
- cholesterol vs vehicle control (rat OPCs; 72 hours): insignificant change
- desmosterol vs vehicle control (rat OPCs; 72 hours): 0.4 folds
- dose for 90% of maximum observed biologic effect (ED90) [4]: 3 mg/kg
- minimal efficacious dose (remyelinated axon fibers in the lesions) [4]: 0.3 mg/kg
- remyelination (myelinated axons, toluidine blue) [4]: enhanced remyelination in a dose dependent manner
- remyelination [5]: enhanced remyelination
- remyelination (myelinated axons in corpus callosum lesions) [6]: dose dependent enhancement of remyelination
- myelination (MBP level by Western blotting) [7]: promoted myelination in OPC/DRG co-culture assay in a dose-dependent manner
- number of MBP+ cells relative to control (human iPSC-derived OPCs): increased
- amount of MBP+ myelinated axon clusters relative to control [8]: increased
- absolute monocyte counts (neutrophils; 60 mg QD, except the patient who discontinued): remained throughout the study in the normal range
- other participants with decline in absolute neutrophil count (neutrophils; Cohort 4, 30 mg): 6 participants
- other participants with decline in absolute neutrophil count (neutrophils; Cohort 5, 60 mg loading dose followed by 10 mg maintenance dose): 6 participants
- other participants with decline in absolute neutrophil count (neutrophils; Cohort 6): 5 participants
- participants with neutropenia AE leading to discontinuation (neutrophils; Cohort 6, 60 mg): 1 participant
- other participants with decline in absolute neutrophil count (neutrophils; Cohort 7): 5 participants
- participants with neutropenia AE leading to discontinuation (neutrophils; Cohort 7, 90 mg loading dose followed by 30 mg maintenance dose): 1 participant
- other participants with decline in absolute neutrophil count (neutrophils; all doses ≥30 mg): 22 participants
- absolute neutrophil count from baseline (neutrophils; doses ≥30 mg): dose-dependent decline
- extent of neutrophil count decline (neutrophils; low doses <30 mg, Cohorts 1, 2, and 3): indistinguishable from placebo control
- participants who developed CTCAE grade 3 neutropenia (neutrophils; whole study of Example 1): Two of 56
- S1P4 activity [9]: known inhibitor

Source: patent US20230390270A1, “METHODS FOR TREATING REMITTING MULTIPLE SCLEROSIS” (BIOGEN MA INC., priority 2020, published 2023)
